Results on 19 molecules are retold here after patent EP0938474B1, “CYCLOPROPYLINDOLE COMPOUNDS AND THEIR USE AS PRODRUGS” (AUCKLAND UNISERVICES LIMITED, priority 1996, dated 1998).

The test system of one assay is WC14.10. Nature of the assay: Cytotoxicity in cells transfected with bacterial nitroreductase (NR+). The class given is cell-based. As to conditions: Homo sapiens; WC14.10 (NR+ transfected counterpart of WIDR); IC50, unit inferred; read-out: Human colon lines NR+. The text has this:
(§1) Compounds of the invention were further tested against human cell lines (NR+ in Table 3) transfected with a gene encoding a bacterial nitroreductase (NR) enzyme to test for activation of compounds of the invention with NR. Untransfected control cells (NR- in Table 3) were used as controls. The cells used were the human colon NR-(wild-type) line WIDR and its transfected NR+ counterpart WC14.10; and the human ovarian NR- (wild-type) line SKOV3 together with its NR+ (transfected) counterpart SC3.2. The results are shown in Table 3, which also indicates the ratios of IC50s. These are intra-experiment values, and may differ slightly from those calculated from the given NR- and NR+ values.

The subject of another assay is SC3.2. Described as above. The class given is cell-based. As to conditions: Homo sapiens, SK-OV-3; SC3.2 (NR+ transfected counterpart of SKOV3); IC50, unit inferred; read-out: Human ovarian lines NR+.
Text: as §1

Assay [1] deals with human colon NR-(wild-type) line WIDR. Nature of the assay: Cytotoxicity in untransfected control cells (NR-), nitroreductase activation test. Type of assay: cell-based. Particulars: IC50, unit inferred, read-out: Human colon lines NR-.
Text: as §1

Assay [2] has as its system human ovarian NR- (wild-type) line SKOV3. Described as above. Type of assay: cell-based. As to conditions: SK-OV-3, IC50, unit inferred, read-out: Human ovarian lines NR-.
Text: as §1

The subject of another assay is EMT6. Nature of the assay: Cytotoxicity (growth inhibition), 4 h drug exposure, methylene blue staining. The class given is cell-based. Particulars: Mus musculus; EMT6 rodent line; 4 hours exposure, then three days incubation. How it is done: (§2) Compounds of the invention were tested for cytotoxicity against four different cell lines, all of which are widely available in the art. AA8 is a wild type rodent cell line. UV4 is a mutant AA8 cell line defective in excision repair, and hypersensitive to many alkylating agents. EMT6 is a widely-used rodent line. SKOV is a human ovarian cell line.
(§3) Cell culture assays were performed in 96-well microtitre trays. Compounds of the invention were added in culture medium, using serial two-fold dilutions to provide duplicate cultures at five different concentrations for each of eight drugs (plus eight controls) per tray. Drugs were dissolved in water or DMSO immediately prior to addition to the cell culture. After 4 hours, drugs were removed by washing cultures three times with fresh medium, and the trays were incubated for a futher three days. Cell density was then determined by staining with methylene blue as described previously (Finlay, G. J., et al, Anal. Biochm. 1984, 139, 272-277) and the IC50 was calculated as the drug concentration providing 50% inhibition of growth relative to the controls.

Another assay relates to AA8. The assay is described as above. Type of assay: cell-based. As to conditions: Cricetulus griseus, CHO-AA8; AA8 wild type rodent cell line; 4 hours exposure, then three days incubation. On the procedure:
as §2, §3

A further assay relates to SKOV3. Described as above. Particulars: SK-OV-3; human ovarian cell line; 4 hours exposure, then three days incubation. The class given is cell-based. How it is done:
as §2, §3

The next assay has as its system UV4. Described as above. The class given is cell-based, rodent. As to conditions: Cricetulus griseus; UV4 mutant AA8 line defective in excision repair; 4 hours exposure, then three days incubation. How it is done:
as §2, §3

For assay [3] the following is noted: background statement, test system not given; cited from earlier work.

For `COc1cc2cc(C(=O)N3CC(CCl)c4c3cc([N+](=O)[O-])c3ccccc43)[nH]c2c(OC)c1OC` (racemic) [14a], the IC50 came to 380 nM in the assay on WC14.10, 140 nM in the assay on SC3.2, 1300 nM in [1] and 1600 nM in [2].
As for `COc1cc2cc(C(=O)N3C[C@H](CCl)c4c3cc([N+](=O)[O-])c3ccccc43)[nH]c2c(OC)c1OC` [14aR], the IC50 in the assay on WC14.10 is > 20000 nM; in the assay on SC3.2 it was 300 nM; in [1] it was > 20000 nM; in assay [2], > 20000 nM.
As to `COc1cc2cc(C(=O)N3C[C@@H](CCl)c4c3cc([N+](=O)[O-])c3ccccc43)[nH]c2c(OC)c1OC` [14aS], the IC50 with WC14.10 stood at 90 nM; with SC3.2, 40 nM; in [1] it was 350 nM; in assay [2], 400 nM.
For `O=C(c1cc2cc([N+](=O)[O-])ccc2[nH]1)N1CC(CCl)c2c1cc([N+](=O)[O-])c1ccccc21` (stereo not shown) [14b, 1-(chloromethyl)-5-nitro-3-[(5-nitroindol-2-yl)carbonyl]-1,2-dihydro-3H-benz[e]indole], the IC50 in the assay on WC14.10 was found to be 210 nM; in the assay on SC3.2, 390 nM; in [1], 390 nM; in assay [2] it was 400 nM.
For the molecule `CC(=O)Nc1ccc2[nH]c(C(=O)N3CC(CCl)c4c3cc([N+](=O)[O-])c3ccccc43)cc2c1` (stereo not shown) [14c, 3-[[5-(acetylamino)indol-2-yl]carbonyl]-1-(chloromethyl)-5-nitro-1,2-dihydro-3H-benz[e]indole], the IC50 with WC14.10 was 360 nM; in the assay on SC3.2, 250 nM; in assay [1] it was 1600 nM; in [2] it was 4300 nM.
In the same order, the values of `COc1ccc2[nH]c(C(=O)N3CC(CCl)c4c3cc([N+](=O)[O-])c3ccccc43)cc2c1` (stereo not shown) [14d, 1-(chloromethyl)-3-[(5-methoxyindol-2-yl)carbonyl]-5-nitro-1,2-dihydro-3H-benz[e]indole] are 290 nM, 150 nM, 740 nM and 580 nM.
As for `CN(C)CCOc1ccc2[nH]c(C(=O)N3CC(CCl)c4c3cc([N+](=O)[O-])c3ccccc43)cc2c1` (stereo not shown) [14e, 1-(chloromethyl)-3-[[5-[2-(dimethylamino)-ethoxy]indol-2-yl]carbonyl] -5-nitro-1,2-dihydro-3H-benz [e] indole], the IC50 in the assay on WC14.10 is 130 nM; in the assay on SC3.2, 90 nM; in assay [1], 370 nM; in assay [2], 1000 nM.
Consider `CCCC(=O)Nc1cc(/C=C/C(=O)N2CC(CCl)c3c2cc([N+](=O)[O-])c2ccccc32)n(C)c1` (stereo not shown) [14i, 3-[(E)-4-(butyrylamino)-1-methyl-2-pyrroleacryloyl]-1-(chloromethyl)-5-nitro-1,2-dihydro-3H-benz [e] indole], for which the IC50 in the assay with WC14.10 came to 600 nM; in the assay on SC3.2, 390 nM; in [1], 2200 nM; in assay [2], 4300 nM.
In the same order, the values of `COc1cccc(/C=C/C(=O)N2CC(CCl)c3c2cc([N+](=O)[O-])c2ccccc32)c1` (stereo not shown) [14l, 1-(chloromethyl)-3-[(E)-3-methoxycinnamoyl]-5-nitro-1,2-dihydro-3H-benz[e]iadole] are 80 nM, 40 nM, 140 nM and 130 nM.
As to `COc1cc2cc(C(=O)N3CC(COS(C)(=O)=O)c4c3cc([N+](=O)[O-])c3ccccc43)[nH]c2c(OC)c1OC` (stereo not shown) [14o, 1-[(methanesulfonyloxy)methyl]-5-nitro-3-[(5,6,7-trimethoxyindol-2-yl)carbonyl]-1,2-dihydro-3H-benz[e]indole], the IC50 in the assay on WC14.10 stood at 60 nM; with SC3.2, 50 nM; in assay [1] it was 410 nM; in assay [2] it was 410 nM.
Turning to `CNc1cc2c(c3ccccc13)C(CCl)CN2C(=O)c1cc2cc(OC)c(OC)c(OC)c2[nH]1` (stereo not shown) [15p, 1-(chloromethyl)-5-methylamino-3-[(5,6,7-trimethoxyindol-2-yl)carbonyl]-1,2-dihydro-3H-benz[e]indole], the IC50 turned out to be 0.1 nM with EMT6, 0.1 nM in the assay on AA8, 0.3 nM in the assay on SKOV3 and 0.1 nM with UV4.
With `COc1cc2cc(C(=O)N3CC(CCl)c4c3cc(N(C)C)c3ccccc43)[nH]c2c(OC)c1OC` (stereo not shown) [15q, 1-(chloromethyl)-5-dimethylamino-3-[(5,6,7-trimethoxy-indol-2-yl)carbonyl]-1,2-dihydro-3H-benz [e] indole], the IC50 with EMT6 was 3.8 nM; in the assay on AA8 it was 5.6 nM; with SKOV3 it was 16 nM; in the assay with UV4, 3.7 nM.
For `COc1cc2cc(C(=O)N3CC(CCl)c4c3cc(NC(=O)OCc3ccc([N+](=O)[O-])cc3)c3ccccc43)[nH]c2c(OC)c1OC` (stereo not shown) [15r, 1-(chloromethyl)-5-[(4-nitrobenzyloxycarbonyl)amino]-3-[(5,6,7-trimethoxyindol-2-yl)carbonyl]-1,2 - dihydro-3H-benz[e] indole], the IC50 with WC14.10 turned out to be 12 nM; with SC3.2 it was 5.4 nM; in assay [1], 390 nM; in assay [2], 62 nM.
Consider `COC(=O)c1cc2c3c(cc(N)c2[nH]1)N(C(=O)c1cc2cc(OC)c(OC)c(OC)c2[nH]1)CC3CCl` (stereo not shown) [32a, methyl 5-amino-1-(chloromethyl)-3-[(5,6,7-trimethoxyindol-2-yl)carbonyl]-1,2-dihydro-3H-pyrrolo[3,2-e]indole-7-carboxylate], for which the IC50 worked out at 5.6 nM in the assay on EMT6, 17 nM in the assay on AA8, 14 nM in the assay on SKOV3 and 1.7 nM with UV4.
For `CNc1cc2c(c3cc(C(=O)OC)[nH]c13)C(CCl)CN2C(=O)c1cc2cc(OC)c(OC)c(OC)c2[nH]1` (stereo not shown) [32b, methyl 1-(chloromethyl)-5-methylamino-3-[(5,6,7-trimethoxyindol-2-yl)carbanyl]-1,2-dihydro-3H-pyrrolo[3,2-e]indole-7-carboxylate], the IC50 with EMT6 is 0.8 nM; with AA8, 2.4 nM; with SKOV3, 1.9 nM; in the assay with UV4, 0.7 nM.
Regarding `COC(=O)c1cc2c3c(cc(N(C)C)c2[nH]1)N(C(=O)c1cc2cc(OC)c(OC)c(OC)c2[nH]1)CC3CCl` (stereo not shown) [32c, methyl 1-(chloromethyl)-5-dimethylamino-3-[(5,6,7-trimethoxyindol-2-yl)carbonyl]-1,2-dihydro-3H-pyrrolo[3,2-e]indole-7-carboxylate], the IC50 with EMT6 came out at 5.2 nM; in the assay on AA8 it was 12 nM; with SKOV3 it was 12 nM; with UV4, 3.3 nM.
Take `COC(=O)c1cc2c3c(cc(NC(=O)OCc4ccc([N+](=O)[O-])cc4)c2[nH]1)N(C(=O)c1cc2cc(OC)c(OC)c(OC)c2[nH]1)CC3CCl` (stereo not shown) [32d, methyl 1-(chloromethyl) -5-[(4-nitrobenzyloxycarbonyl) -amino] -3-[(5,6,7-trimethoxyindol-2-yl)carbonyl]-1,2-dihydro-3H-pyrrolo[3,2-e]indole-7-carboxylate]: the IC50 was 260 nM in the assay with WC14.10, 270 nM in the assay with SC3.2, 490 nM in [1] and 1100 nM in [2].
For the molecule `COc1c(O)c2c(c3cc(C(=O)N4CCc5c4c(O)c(OC)c4[nH]c(C(=O)N6CC7CC78C6=CC(=O)c6[nH]cc(C)c68)cc54)[nH]c13)CCN2C(N)=O` (stereo not shown) [CC-1065], the “IC50's” value in [3] was “low pM range”.
In the case of `COC(=O)c1cc2c3c(cc([N+](=O)[O-])c2[nH]1)N(C(=O)c1cc2cc(OC)c(OC)c(OC)c2[nH]1)CC3CCl` (stereo not shown) [compound 31, methyl 1-(chloromethyl)-5-nitro-3-[(5,6,7-trimethoxyindol-2-yl)carbonyl]-1,2-dihydro-3H-pyrrolo[3,2-e]indole-7-carboxylate], the IC50 was found to be 10 nM in the assay with WC14.10, 5 nM in the assay with SC3.2, 400 nM in assay [1] and 60 nM in [2].
